From patent publication US4977144A, “Imidazo[4,5-b]pyridine derivatives as cardiovascular agents” (Ciba-Geigy Corporation, priority 1989, dated 1990)

Tests used:
[1] = target: T1, adenosine-2 (A-2) receptor (Rattus norvegicus, UniProt P30543); experiment: adenosine-2 (A-2) receptor binding: inhibition of specific binding of 3H-NECA in rat striatal membrane preparations; set-up: species or system male Sprague-Dawley rats; conditions: for IC50: displacement of 4 nM 3H-NECA in the presence of 50 nM cyclopentyladenosine, rat striatal membranes, read-out: IC50 in the in vitro adenosine-2 receptor binding assay
T1 construct: striatal membrane preparations from corpus striatum of male Sprague-Dawley rats; from tissue; host or cells: corpus striatum of male Sprague-Dawley rats (membrane preparation)
T1 sequence (P30543 whole entry): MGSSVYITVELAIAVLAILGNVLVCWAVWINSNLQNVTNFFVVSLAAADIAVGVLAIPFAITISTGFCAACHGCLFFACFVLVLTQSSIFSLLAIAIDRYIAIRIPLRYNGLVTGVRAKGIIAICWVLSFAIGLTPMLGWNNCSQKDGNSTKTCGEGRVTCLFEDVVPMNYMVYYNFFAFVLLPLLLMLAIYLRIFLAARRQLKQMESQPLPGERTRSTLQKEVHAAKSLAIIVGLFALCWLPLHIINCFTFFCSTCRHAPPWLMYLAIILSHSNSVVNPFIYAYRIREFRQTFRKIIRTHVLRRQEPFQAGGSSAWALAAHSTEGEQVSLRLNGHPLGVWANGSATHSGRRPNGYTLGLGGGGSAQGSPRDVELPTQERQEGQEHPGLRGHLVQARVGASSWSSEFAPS

[2] = test system: spontaneous hypertensive rat; experiment: blood pressure lowering effect in the spontaneous hypertensive rat on oral administration; format: in vivo; conditions: at a dose of about 10 mg/Kg p.o.
Protocol: Indicative of in vivo adenosine receptor agonist activity, the hypotensive activity of the compounds of the invention can be measured in normotensive or spontaneous hypertensive rats on intravenous or oral administration.
The blood pressure lowering effect in the spontaneous hypertensive rat is determined on oral administration as known in the art.

| Structure (SMILES) | IC50 [1] | greater potency at the A-2 receptor than at the A-1 receptor ([1]; A-2 binding versus A-1 binding) | lowers blood pressure in the spontaneous hypertensive rat model [2] |
| --- | --- | --- | --- |
| COc1ccc(CCNc2cc(N)c3ncn([C@@H]4O[C@H](CO)[C@@H](O)[C@H]4O)c3n2)cc1 [Example 15(1)] | ~70 nM | – | – |
| Nc1cc(NCCC2CCCCC2)nc2c1ncn2[C@@H]1O[C@H](CO)[C@@H](O)[C@H]1O [Example 1, 7-amino-3-β-D-ribofuranosyl-N-(2-cyclohexylethyl)-3H-imidazo[4,5-b] pyridin-5-amine] | ~100 nM | more than 100 fold | effectively lowers blood pressure |
